The test system of this assay is recombinant NL-Rluc virus. The assay is described as follows: Inhibition of HIV replication (NL-RLuc luciferase reporter virus, MT-2 cells). The format is cell-based. As to conditions: Human immunodeficiency virus 1, MT2, 120 h. (In general: A reporter such as luciferase makes a cellular process visible.)

Molecules are shown by their SMILES. Read-outs that look alike come from different tables or passages of the source.

Turning to `Cc1nc2cc(C(=O)N3CCN(CCN4CCOCC4)CC3)nn2c(-c2cc(F)c3c(c2C)CCCO3)c1[C@H](OC(C)(C)C)C(=O)O` [Example 91, (2S)-2-(tert-butoxy)-2-(7-(8-fluoro-5-methylchroman-6-yl)-5-methyl-2-(4-(2-morpholinoethyl)piperazine-1-carbonyl)pyrazolo[1,5-a]pyrimidin-6-yl)acetic acid], the EC50 (read-out: Activity) is above 1 µM.

On to `Cc1nc2cc(C(=O)NCc3ccc(C#N)cc3)nn2c(-c2cc(F)c3c(c2C)CCCO3)c1[C@H](OC(C)(C)C)C(=O)O` [Example 121, (2S)-2-(tert-butoxy)-2-(2-((4-cyanobenzyl)carbamoyl)-7-(8-fluoro-5-methylchroman-6-yl)-5-methylpyrazolo[1,5-a]pyrimidin-6-yl)acetic acid], for which the EC50 (read-out: Activity) fell in the range of 0.1 to 1 µM. `CCCOCCNC(=O)c1cc2nc(C)c([C@H](OC(C)(C)C)C(=O)O)c(-c3cc(F)c4c(c3C)CCCO4)n2n1` [Example 133, (2S)-2-(tert-butoxy)-2-(7-(8-fluoro-5-methylchroman-6-yl)-5-methyl-2-((2-propoxyethyl)carbamoyl)pyrazolo[1,5-a]pyrimidin-6-yl)acetic acid]: the EC50 by setting is: (read-out: Activity) 0.1 to 1 µM; (read-out: EC50 μM) 0.185 µM.

On to `Cc1nc2cc(C(=O)NCc3ccccc3Cl)nn2c(-c2cc(F)c3c(c2C)CCCO3)c1[C@H](OC(C)(C)C)C(=O)O` [Example 40, (2S)-2-(tert-butoxy)-2-(2-((2-chlorobenzyl)carbamoyl)-7-(8-fluoro-5-methylchroman-6-yl)-5-methylpyrazolo[1,5-a]pyrimidin-6-yl)acetic acid], for which the EC50 (read-out: Activity) was below 0.1 µM.

As for `Cc1nc2cc(C(=O)NCCNc3ccccc3)nn2c(-c2cc(F)c3c(c2C)CCCO3)c1[C@H](OC(C)(C)C)C(=O)O` [Example 47, (2S)-2-(tert-butoxy)-2-(7-(8-fluoro-5-methylchroman-6-yl)-5-methyl-2-((2-(phenylamino)ethyl)carbamoyl)pyrazolo[1,5-a]pyrimidin-6-yl)acetic acid], the EC50 (read-out: Activity) was in the range of 0.1 to 1 µM and the EC50 (read-out: EC50 μM) came out at 0.281 µM. In the case of `Cc1nc2cc(C(=O)N3CCN(c4ccc(Cl)cc4)CC3)nn2c(-c2cc(F)c3c(c2C)CCCO3)c1[C@H](OC(C)(C)C)C(=O)O` [Example 116, (2S)-2-(tert-butoxy)-2-(2-(4-(4-chlorophenyl)piperazine-1-carbonyl)-7-(8-fluoro-5-methylchroman-6-yl)-5-methylpyrazolo[1,5-a]pyrimidin-6-yl)acetic acid], the EC50 (read-out: Activity) is below 0.1 µM.

Regarding `Cc1nc2cc(C(=O)NCCC3CCCN3C)nn2c(-c2cc(F)c3c(c2C)CCCO3)c1[C@H](OC(C)(C)C)C(=O)O` (stereo partly drawn) [Example 74, (2S)-2-(tert-butoxy)-2-(7-(8-fluoro-5-methylchroman-6-yl)-5-methyl-2-((2-(1-methylpyrrolidin-2-yl)ethyl)carbamoyl)pyrazolo[1,5-a]pyrimidin-6-yl)acetic acid], the EC50 (read-out: Activity) is above 1 µM.

On to `Cc1nc2cc(C(=O)NCc3ccc(N(C)C)cc3)nn2c(-c2cc(F)c3c(c2C)CCCO3)c1[C@H](OC(C)(C)C)C(=O)O` [Example 52, (2S)-2-(tert-butoxy)-2-(2-((4-(dimethylamino)benzyl)carbamoyl)-7-(8-fluoro-5-methylchroman-6-yl)-5-methylpyrazolo[1,5-a]pyrimidin-6-yl)acetic acid], for which the EC50 (read-out: Activity) is below 0.1 µM. Turning to `CCN1CCN(C(=O)c2cc3nc(C)c([C@H](OC(C)(C)C)C(=O)O)c(-c4cc(F)c5c(c4C)CCCO5)n3n2)CC1` [Example 83, (2S)-2-(tert-butoxy)-2-(2-(4-ethylpiperazine-1-carbonyl)-7-(8-fluoro-5-methylchroman-6-yl)-5-methylpyrazolo[1,5-a]pyrimidin-6-yl)acetic acid], the EC50 (read-out: Activity) was above 1 µM. With `Cc1nc2cc(C(=O)NCc3ncc(F)cc3F)nn2c(-c2cc(F)c3c(c2C)CCCO3)c1[C@H](OC(C)(C)C)C(=O)O` [Example 36, (2S)-2-(tert-butoxy)-2-(2-(((3,5-difluoropyridin-2-yl)methyl)carbamoyl)-7-(8-fluoro-5-methylchroman-6-yl)-5-methylpyrazolo[1,5-a]pyrimidin-6-yl)acetic acid], the EC50 (read-out: Activity) fell in the range of 0.1 to 1 µM and the EC50 (read-out: EC50 μM) was determined as 0.255 µM. The corresponding values for `Cc1nc2cc(C(=O)N(C)CCCn3ccnc3)nn2c(-c2cc(F)c3c(c2C)CCCO3)c1[C@H](OC(C)(C)C)C(=O)O` [Example 37, (2S)-2-(2-((3-(1H-imidazol-1-yl)propyl)(methyl)carbamoyl)-7-(8-fluoro-5-methylchroman-6-yl)-5-methylpyrazolo[1,5-a]pyrimidin-6-yl)-2-(tert-butoxy)acetic acid] are above 1 µM and 20 µM.

For the molecule `Cc1nc2cc(C(=O)NCc3ccc(F)c(C4CC4)c3)nn2c(-c2cc(F)c3c(c2C)CCCO3)c1[C@H](OC(C)(C)C)C(=O)O` [Example 26], the EC50 (read-out: Activity) was below 0.1 µM.

`Cc1nc2cc(C(=O)NCCC3(O)CCCC3)nn2c(-c2cc(F)c3c(c2C)CCCO3)c1[C@H](OC(C)(C)C)C(=O)O` [Example 134, (2S)-2-(tert-butoxy)-2-(7-(8-fluoro-5-methylchroman-6-yl)-2-((2-(1-hydroxycyclopentyl)ethyl)carbamoyl)-5-methylpyrazolo[1,5-a]pyrimidin-6-yl)acetic acid]: the EC50 (read-out: Activity) is above 1 µM. For the molecule `Cc1ccccc1CN(C)C(=O)c1cc2nc(C)c([C@H](OC(C)(C)C)C(=O)O)c(-c3cc(F)c4c(c3C)CCCO4)n2n1` [Example 19, (2S)-2-(tert-butoxy)-2-(7-(8-fluoro-5-methylchroman-6-yl)-5-methyl-2-(methyl(2-methylbenzyl)carbamoyl)pyrazolo[1,5-a]pyrimidin-6-yl)acetic acid], the EC50 (read-out: Activity) was below 0.1 µM. In the case of `CCCCOc1cc(F)ccc1CNC(=O)c1cc2nc(C)c([C@H](OC(C)(C)C)C(=O)O)c(-c3ccc4c(c3Cl)NCCO4)n2n1` [Example 143, (2S)-2-(tert-Butoxy)-2-(2-((2-butoxy-4-fluorobenzyl)carbamoyl)-7-(5-chloro-3,4-dihydro-2H-benzo[b][1,4]oxazin-6-yl)-5-methylpyrazolo[1,5-a]pyrimidin-6-yl)acetic acid], the EC50 by setting is: (read-out: Activity) below 0.1 µM; (read-out: EC50 μM) 0.028 µM. Regarding `Cc1nc2cc(C(=O)NCc3ccc(-c4ccccc4)cc3)nn2c(-c2cc(F)c3c(c2C)CCCO3)c1[C@H](OC(C)(C)C)C(=O)O` [Example 70, (2S)-2-(2-(([1,1′-biphenyl]-4-ylmethyl)carbamoyl)-7-(8-fluoro-5-methylchroman-6-yl)-5-methylpyrazolo[1,5-a]pyrimidin-6-yl)-2-(tert-butoxy)acetic acid], the EC50 (read-out: Activity) was below 0.1 µM. As for `Cc1nc2cc(C(=O)NCc3ccc(F)cc3-n3nncc3C)nn2c(-c2cc(F)c3c(c2C)CCCO3)c1[C@H](OC(C)(C)C)C(=O)O` [Example 10, (2S)-2-(tert-butoxy)-2-(2-((4-fluoro-2-(5-methyl-1H-1,2,3-triazol-1-yl)benzyl)carbamoyl)-7-(8-fluoro-5-methylchroman-6-yl)-5-methylpyrazolo[1,5-a]pyrimidin-6-yl)acetic acid], the EC50 (read-out: Activity) was 0.1 to 1 µM. The same measure, in the same setting: the value for `Cc1nc2cc(C(=O)Nc3ccc(C4CCCCC4)cc3)nn2c(-c2cc(F)c3c(c2C)CCCO3)c1[C@H](OC(C)(C)C)C(=O)O` [Example 73, (2S)-2-(tert-butoxy)-2-(2-((4-cyclohexylphenyl)carbamoyl)-7-(8-fluoro-5-methylchroman-6-yl)-5-methylpyrazolo[1,5-a]pyrimidin-6-yl)acetic acid] was below 0.1 µM; that for `Cc1nc2cc(C(=O)NCCC(C)(C)C)nn2c(C2=CCC(C)(C)CC2)c1[C@H](OC(C)(C)C)C(=O)O` [Example 148, (S)-2-(tert-Butoxy)-2-(2-((3,3-dimethylbutyl)carbamoyl)-7-(4,4-dimethylcyclohex-1-en-1-yl)-5-methylpyrazolo[1,5-a]pyrimidin-6-yl)acetic acid] was below 0.1 µM. In the case of `Cc1nccc(-c2cccc(NC(=O)c3cc4nc(C)c([C@H](OC(C)(C)C)C(=O)O)c(-c5cc(F)c6c(c5C)CCCO6)n4n3)c2)n1` [Example 85], the EC50 is, setting by setting: (read-out: Activity) below 0.1 µM; (read-out: EC50 μM) 0.016 µM. Take `Cc1nc2cc(C(=O)NCc3cccc(Cl)c3)nn2c(-c2cc(F)c3c(c2C)CCCO3)c1[C@H](OC(C)(C)C)C(=O)O` [Example 54, (2S)-2-(tert-butoxy)-2-(2((3-chlorobenzyl)carbamoyl)-7-(8-fluoro-5-methylchroman-6-yl)-5-methylpyrazolo[1,5-a]pyrimidin-6-yl)acetic acid]: under “read-out: Activity”, the EC50 is below 0.1 µM.

With `Cc1nc2cc(C(=O)NCc3ccc(S(N)(=O)=O)cc3)nn2c(-c2cc(F)c3c(c2C)CCCO3)c1[C@H](OC(C)(C)C)C(=O)O` [Example 53, (2S)-2-(tert-butoxy)-2-(7-(8-fluoro-5-methylchroman-6-yl)-5-methyl-2-((4-sulfamoylbenzyl)carbamoyl)pyrazolo[1,5-a]pyrimidin-6-yl)acetic acid], the EC50 (read-out: Activity) was above 1 µM and the EC50 (read-out: EC50 μM) was determined as 3.19 µM.

As to `Cc1nc2cc(C(=O)NCc3ccc(F)c(C(F)F)c3)nn2c(-c2cc(F)c3c(c2C)CCCO3)c1[C@H](OC(C)(C)C)C(=O)O` [Example 27], for the setting “read-out: Activity”, the EC50 was below 0.1 µM. As to `Cc1nc2cc(C(=O)NCCC(C)(C)C)nn2c(-c2cc(F)c3c(c2C)CCCO3)c1[C@H](OC(C)(C)C)C(=O)O` [Example 62, (2S)-2-(tert-butoxy)-2-(2-((3,3-dimethylbutyl)carbamoyl)-7-(8-fluoro-5-methylchroman-6-yl)-5-methylpyrazolo[1,5-a]pyrimidin-6-yl)acetic acid], the EC50 runs as follows: (read-out: Activity) below 0.1 µM; (read-out: EC50 μM) 0.013 µM.

As for `CCCNC(=O)c1cc2nc(C)c([C@H](OC(C)(C)C)C(=O)O)c(-c3cc(F)c4c(c3C)CCCO4)n2n1` [Example 124, (2S)-2-(tert-butoxy)-2-(7-(8-fluoro-5-methylchroman-6-yl)-5-methyl-2-(propylcarbamoyl)pyrazolo[1,5-a]pyrimidin-6-yl)acetic acid], the EC50 (read-out: Activity) was 0.1 to 1 µM. Same read-out and setting: next, `Cc1nc2cc(C(=O)N3CCN(c4cccc(Cl)c4)CC3)nn2c(-c2cc(F)c3c(c2C)CCCO3)c1[C@H](OC(C)(C)C)C(=O)O` [Example 80, (2S)-2-(tert-butoxy)-2-(2-(4-(3-chlorophenyl)piperazine-1-carbonyl)-7-(8-fluoro-5-methylchroman-6-yl)-5-methylpyrazolo[1,5-a]pyrimidin-6-yl)acetic acid]: below 0.1 µM.

For the origin of these results see patent US8791108B2, “Inhibitors of human immunodeficiency virus replication” (priority 2011, dated 2014).
